The structures appear in SMILES notation. The source made the active and inactive calls.

From ChEMBL document CHEMBL1201862, “PubChem BioAssay data set” (2004) come the findings set out here.

Assay [1] deals with T1, Ubiquitin-conjugating enzyme E2 N (Homo sapiens, UniProt P61088).
T1 sequence (P61088 whole entry): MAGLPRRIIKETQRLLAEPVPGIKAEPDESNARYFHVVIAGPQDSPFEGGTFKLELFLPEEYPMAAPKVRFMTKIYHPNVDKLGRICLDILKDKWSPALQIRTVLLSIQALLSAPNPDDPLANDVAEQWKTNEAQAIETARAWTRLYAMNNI
Format: functional.

The target in assay [2] is Heat shock protein HSP 90-alpha (Homo sapiens, UniProt P07900). Format: functional, organism-based.
For assay [3], the target named is T2, Endoribonuclease toxin MazF (Escherichia coli K-12, UniProt P0AE70).
T2 sequence (P0AE70 whole entry): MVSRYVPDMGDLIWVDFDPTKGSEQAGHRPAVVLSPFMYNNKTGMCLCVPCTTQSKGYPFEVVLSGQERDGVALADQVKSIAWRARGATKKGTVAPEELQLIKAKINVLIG
Put plainly: fluorescent RNA oligo signal without MazF, dose response, counter-screen for MazEF activator project, biochemical, fluorescence, single-stranded RNase substrate (AID 588502). Format: functional. In general terms: A counterscreen serves to expose hits that act by an unwanted route or on another target.

Assay [4] addresses T2, Endoribonuclease toxin MazF. As to the kind of experiment: MazF toxin RNase activators, dose response, biochemical, fluorescence, single-stranded RNA substrate, uHTS hits (AID 588481). The assay is classed as functional.
Assay [5] in a line: Luminescence Cell-Based Dose Confirmation HTS to Identify Activators of 5'UTR Stem-Loop Driven Alpha-Synuclein mRNA Translation in H4 Neuroglioblastoma Cells. [Related pubchem assays: 1829 (Project Summary), 1814 (Primary HTS)]. The assay is classed as functional.
Assay [6] is described as follows: Luminescence Cell-Based Dose Response HTS to Identify Activators of Luciferase Translation or Activity in H4 […] Cells. [Related pubchem assays: 1829 (Project Summary), 1814 (Primary HTS)]. Format: functional.
The next assay concerns H4. Put plainly: Luminescence Cell-Based Dose Response HTS to Identify Activators of 5'UTR Stem-Loop Driven Prion Protein mRNA Translation in H4 Neuroglioblastoma Cells. [Related pubchem assays: 1829 (Project Summary), 1814 (Primary HTS)]. The following applies: Homo sapiens. The assay is classed as functional.
Assay [7] deals with Glyceraldehyde-3-phosphate dehydrogenase (Homo sapiens, UniProt P04406).
Assay [8] in a line: P. falciparum Dd2 growth inhibitors, dose response, SYBR Green, cherry-picked samples (AID 1159567). Format: functional, cell-based.
Assay [9] can be described thus: P. falciparum ATP4 D1247Y mutant growth inhibitors, dose response, NITD609-resistant line, SYBR Green, dry powder (AID 1159571).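 Note: parasites synchronized at ring stage by sorbitol before testing.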 Format: functional, cell-based.
Assay [10] can be described thus: P. falciparum 3D7-ScDHODH growth inhibitors, dose response, SYBR Green, dry powder samples (AID 1159570).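 Note: parasite growth measured after 72 hours of compound exposure.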 The assay is classed as functional, cell-based.
A short description of assay [11]: P. falciparum Dd2 growth inhibitors, dose response, SYBR Green, dry powder samples (AID 1159566).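 Note: potency for growth inhibition with lower SYBR green DNA signal.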 Format: functional, cell-based.
Assay [12] has as its target DNA dC->dU-editing enzyme APOBEC-3G (Homo sapiens, UniProt Q9HC16). Put plainly: Dose Response confirmation of small molecule APOBEC3G DNA Deaminase Inhibitors via a fluorescence-based single-stranded DNA deaminase assay. [Related pubchem assays (depositor defined):AID493012, AID493028]. Format: functional.
Assay [13] is described as follows: LGR2 antagonists, dose response, cell-based, HEK293, CRE-luciferase reporter, cherry pick, set 2 (AID 743343).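 Note: transfected cells were stimulated with diluted bursicon conditioned medium after compound addition.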 The assay is classed as functional. In general terms: Reporter assays use an easily measured gene product as a stand-in for the process of interest.
The nature of assay [14]: HepG2 cell cytotoxicity, dose response, cytotoxicity control, plate reader, cherry-pick, antagonist series (AID 743416). Format: functional, cell-based.
Assay [15] in a line: HEK293 cell cytotoxicity, dose response, cytotoxicity control, plate reader, cherry-picked samples (AID 743446). Format: functional, cell-based.
Assay [16] in a line: intracellular Trypanosoma cruzi inhibitors in host cells – cell-based, plate reader, cherry-pick samples, set 3, dose response (AID 651818).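 Note: compounds incubated with infected cells for about four days.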 Format: functional.
Assay [17] can be described thus: A549 cell cytotoxicity, dose response, cytotoxicity control, plate reader, cherry-pick, antagonist series (AID 743412). Format: functional, cell-based.
Assay [18] can be described thus: MC4R antagonists, dose response, counter-screen for LGR2 antagonist project, cell-based, plate reader, cherry pick (AID 743444).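 Note: transfected HEK 293 cells stimulated with alpha-MSH peptide; potency of inhibitors of the alpha-MSH evoked signal.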 The assay is classed as functional.
Assay [19] is described as follows: cytotoxicity toward NIH3T3 fibroblasts, dose response, counter-screen, cell-based, ATP luminescence, mouse fibroblasts (AID 2010).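 Note: cells exposed to compound for about 90 hours before reading.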 The assay is classed as functional.
The nature of assay [20]: THP-1 cell cytotoxicity, dose response, cytotoxicity control for non-replicating M. tuberculosis project (AID 489025). The assay is classed as functional.
Assay [21] in a line: inhibitors of intracellular T. cruzi replication, confirmation, NIH3T3 host cells, beta-gal luminescence (AID 2044).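 Note: intracellular parasites grown in NIH/3T3 mouse fibroblasts as host cells; luminescent beta-galactosidase reporter signal from transgenic T. cruzi replicating inside host cells; inhibitors lower the luminescence signal.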 Format: functional, cell-based.
Another assay in a line: cells. Format: functional.
In assay [22] the target is T3, DNA repair and recombination protein RAD54-like (Homo sapiens, UniProt Q92698).
T3 sequence (Q92698 whole entry): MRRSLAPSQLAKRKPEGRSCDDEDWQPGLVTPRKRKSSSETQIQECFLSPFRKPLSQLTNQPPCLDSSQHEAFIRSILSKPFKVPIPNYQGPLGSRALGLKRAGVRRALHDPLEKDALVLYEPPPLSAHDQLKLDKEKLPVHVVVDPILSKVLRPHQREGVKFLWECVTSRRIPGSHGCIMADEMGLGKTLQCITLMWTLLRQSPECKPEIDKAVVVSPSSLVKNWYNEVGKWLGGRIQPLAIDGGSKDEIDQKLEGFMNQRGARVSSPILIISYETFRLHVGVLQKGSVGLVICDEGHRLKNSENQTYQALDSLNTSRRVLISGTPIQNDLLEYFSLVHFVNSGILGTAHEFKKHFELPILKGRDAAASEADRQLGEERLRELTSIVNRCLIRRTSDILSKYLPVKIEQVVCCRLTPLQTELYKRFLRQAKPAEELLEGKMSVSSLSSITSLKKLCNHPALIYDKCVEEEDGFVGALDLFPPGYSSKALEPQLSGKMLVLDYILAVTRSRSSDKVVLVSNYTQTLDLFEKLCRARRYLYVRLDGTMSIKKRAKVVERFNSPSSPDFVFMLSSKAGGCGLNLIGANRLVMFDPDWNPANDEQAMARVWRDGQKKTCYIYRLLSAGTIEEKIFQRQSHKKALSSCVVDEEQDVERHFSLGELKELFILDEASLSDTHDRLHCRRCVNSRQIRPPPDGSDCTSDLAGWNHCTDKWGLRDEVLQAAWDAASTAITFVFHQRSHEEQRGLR
Put plainly: inhibitors of human RAD54 branch migration, confirmation, biochemical, fluorescence, cherry-picked samples, dose series (AID 651657). The assay is classed as functional.

In a further assay the target is T4, Leucine aminopeptidase (Plasmodium falciparum 3D7, UniProt Q8IL11).
T4 sequence (Q8IL11 whole entry): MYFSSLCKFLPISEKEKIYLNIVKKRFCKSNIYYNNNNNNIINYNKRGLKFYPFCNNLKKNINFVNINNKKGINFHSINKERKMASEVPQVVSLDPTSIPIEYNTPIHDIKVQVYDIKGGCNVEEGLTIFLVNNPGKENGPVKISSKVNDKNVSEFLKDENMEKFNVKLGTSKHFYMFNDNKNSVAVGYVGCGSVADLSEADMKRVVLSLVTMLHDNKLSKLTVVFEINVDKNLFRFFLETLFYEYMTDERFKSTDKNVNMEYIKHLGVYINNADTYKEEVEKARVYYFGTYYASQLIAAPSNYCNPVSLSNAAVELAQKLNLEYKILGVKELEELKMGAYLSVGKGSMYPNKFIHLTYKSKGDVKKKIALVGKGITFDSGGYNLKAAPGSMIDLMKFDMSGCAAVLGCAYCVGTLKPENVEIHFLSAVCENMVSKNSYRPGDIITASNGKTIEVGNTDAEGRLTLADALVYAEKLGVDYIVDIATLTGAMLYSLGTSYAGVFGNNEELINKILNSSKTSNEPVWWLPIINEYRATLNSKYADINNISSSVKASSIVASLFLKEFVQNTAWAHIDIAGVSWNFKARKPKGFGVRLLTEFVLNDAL
As to the kind of experiment: P. falciparum M17LAP inhibitors, primary screen, biochemical, fluorogenic H-Leu-NHMec substrate, 1536-well (AID 1619). The assay is classed as functional.

Sequence of DNA dC->dU-editing enzyme APOBEC-3G (Q9HC16 whole entry): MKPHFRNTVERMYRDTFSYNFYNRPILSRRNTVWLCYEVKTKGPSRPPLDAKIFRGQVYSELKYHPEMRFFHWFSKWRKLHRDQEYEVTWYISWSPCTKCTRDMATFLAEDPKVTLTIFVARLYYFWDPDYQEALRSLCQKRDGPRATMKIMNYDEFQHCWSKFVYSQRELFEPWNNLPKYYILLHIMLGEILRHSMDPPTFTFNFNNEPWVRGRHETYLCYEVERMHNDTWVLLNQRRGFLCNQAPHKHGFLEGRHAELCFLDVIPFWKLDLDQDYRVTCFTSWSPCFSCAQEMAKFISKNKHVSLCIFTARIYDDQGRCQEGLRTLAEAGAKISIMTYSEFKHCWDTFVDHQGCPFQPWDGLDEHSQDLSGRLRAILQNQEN
Sequence of Glyceraldehyde-3-phosphate dehydrogenase (P04406 whole entry): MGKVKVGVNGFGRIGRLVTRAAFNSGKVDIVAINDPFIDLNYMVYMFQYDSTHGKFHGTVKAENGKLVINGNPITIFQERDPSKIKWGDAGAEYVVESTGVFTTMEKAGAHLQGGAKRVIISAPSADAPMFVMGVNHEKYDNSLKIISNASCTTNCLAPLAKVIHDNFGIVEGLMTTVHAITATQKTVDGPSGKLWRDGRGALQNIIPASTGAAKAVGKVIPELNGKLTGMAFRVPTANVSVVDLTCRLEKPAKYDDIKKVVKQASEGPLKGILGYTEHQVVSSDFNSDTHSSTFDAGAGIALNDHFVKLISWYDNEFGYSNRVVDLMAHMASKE

As usually defined, the IC50 is the point on the concentration scale where inhibition reaches its midpoint. `COC(=O)C1=C(c2ccc(F)cc2OCc2ccccc2)C[C@@H]2CC[C@H]1N2C(=O)NC1CCN(Cc2ccccc2)CC1`: the IC50 in [1] is > 20 µM (inactive).

Broadly, the AC50 is the midpoint of the concentration-response curve, whichever way the signal moves. With `CC(C)=CCc1c2c(c3occ(-c4ccc(O)c(O)c4)c(=O)c3c1O)C=CC(C)(C)O2` [POMIFERIN], in assay [2], the AC50 is 13.3 µM (active).

Usually EC50 stands for the concentration needed to bring the measured effect to its halfway point. With `Cn1cc(Cl)c(C(=O)N/N=C/c2ccc3c4c(cccc24)CC3)n1`, the EC50 in [3] and in assay [4] was > 99 µM (inactive) each time.

In the case of `O=C(c1ccc2c(c1)ncn2C1CCCCC1)N1CCC2(CC1)OCCO2`, the values for the EC50 (in [5]; in assay [6]; in the assay on H4) were > 120 µM (not active), 6.5 µM (active) and > 120 µM (not active), respectively.

Take `Cc1c(C(=O)Nc2ccc3c(c2)OCO3)sc2nc(-c3ccccc3)cn12`: the EC50 in assay [3] and in assay [4] was > 99 µM (inactive) throughout.

For `CN1CCN(C2=C(Cl)C(=O)N(c3cccc(C(F)(F)F)c3)C2=O)CC1`, the IC50 in [7] is > 50 µM (inconclusive).

As to `C[C@H]1CN([C@@H](C)CO)C(=O)c2c(c3ccccc3n2C)-c2ccccc2CO[C@@H]1CN(C)C(=O)Nc1cccc(C(F)(F)F)c1`, the AC50 in assay [8] was 1.13 µM (active); in [9], 0.376 µM (active); in assay [10], 0.871 µM (active); in [11] it was 0.442 µM (active).

For `CCOc1ccc2nc(NC(=S)N(C)C)sc2c1`, in assay [12], the IC50 was 62.4 µM (active).

For `C[C@H](CO)N1C[C@H](C)[C@@H](CN(C)Cc2ccc3c(c2)OCO3)Oc2c(NC(=O)Nc3ccc(C(F)(F)F)cc3)cccc2C1=O`, the AC50 in [13] is 19.6 µM (active); in assay [14], 21.2 µM (active); in assay [15], 17.3 µM (active); in assay [16] it was 2.74 µM (active); in assay [17], 25.6 µM (active); in [18], 11.9 µM (active).

Regarding `Cc1ccc(C(=O)N/C(=C/c2ccc(-c3cccc([N+](=O)[O-])c3)o2)C(=O)NCCCN(C)C)cc1`, the IC50 in assay [1] was > 20 µM (inactive).

As for `Sc1nc2ccccc2c2nc(-c3cccnc3)nn12`, the IC50 in assay [1] is > 20 µM (inactive).

Regarding `Cn1c(-c2ccc3ccccc3n2)[n+](C)c2ccccc21`, the figures for the EC50 (in [5]; in [6]; in the assay on H4) were > 120 µM (not active), 12.7 µM (active) and 40 µM (active), respectively.

As to `C=CCn1c(S)nnc1-c1ccc2ncccc2c1`, the IC50 in assay [12] was 11.9 µM (active).

As for `CCOC(=O)c1ccc(N2C(=O)CC(N3CCC(C(=O)OCC)CC3)C2=O)cc1` (stereo not given), the AC50 in [2] was 7.24 µM (active).

As usually defined, the CC50 is the concentration at which the toxic effect on the cells reaches its halfway point. With `CCC(CC)COC(=O)C(C#N)c1nc2ccccc2nc1N1CCN(CC)CC1` (stereo not given), the results for the EC50 in assay [19] and in assay [21] were > 60 µM (not active) and 4.05 µM (active), respectively. Moreover, the CC50 in assay [20] was 26.2 µM (active). Besides, the IC50 in the assay “cells” is 17.9 µM (active).

For `C[C@@H](CN1CCC[C@H]1CN1C(N)=NC[C@@H]1Cc1ccccc1)N1C[C@@H](Cc2ccccc2)N(CCCC2CCCC2)C1=N`, the IC50 in assay [1] is > 20 µM (inactive).

On to `CCCCOc1ccc(C2CCC(C(C)=O)C(C)C2)cc1` (stereo not given), for which the figures for the EC50 (in assay [5]; in assay [6]; in the assay on H4) were 0.284 µM (active), 26.8 µM (active) and 41.5 µM (active), respectively.

Consider `CN(C)C(CNC(=O)CCCN1C(=O)c2cccc3cccc(c23)C1=O)c1ccccc1` (stereo not given), for which, in assay [22], the AC50 was 43.4 µM (active).

Consider `COc1ccccc1CCn1cnc(-c2ccccc2F)c1CC(C)C`, for which the concentration at half-maximal activity (AC50) in [13] is 17.5 µM (active); in assay [14], 27.2 µM (active); in [15], > 52 µM (inactive); in [17] it was 27 µM (active); in assay [18], 18.9 µM (active).

For `Nc1nc2ccccc2n1C(=O)c1ccc(F)cc1`, in assay [20], the half-maximal cytotoxic concentration (CC50) is > 40 µM (active). In “cells”, the IC50 was 9.58 µM (active).

With `OC(c1ccccc1)(c1ccccc1)C1CCN(CCCOc2cccc(C(F)(F)F)c2)CC1`, the AC50 in [13] is 21.7 µM (active); in assay [14] it was 10.9 µM (active); in assay [15], 16.9 µM (active); in assay [17], 9.53 µM (active); in [18], 19.6 µM (active).

As to `COc1ccccc1NS(=O)(=O)c1cc(NC(=O)c2cccs2)ccc1N1CCCC1`, the IC50 in assay [12] was 37.1 µM (active).

With `N=C(Cc1cccs1)NOC(=O)COc1ccccc1Cl`, the results for the EC50 (in [5]; in assay [6]; in the assay with H4) were 7.6 µM (active), 50.4 µM (active) and 46 µM (active), respectively.

In the case of `Cc1ccccc1C(=O)NCC(=O)NNC(=S)NC(=O)c1ccccc1`, the values for the IC50 (on Leucine aminopeptidase; in assay [1]) were 47.4 µM (active) and > 20 µM (inactive), respectively.
